Measurements as given in US10053431B2, “Tetrahydro-benzodiazepinones” (priority 2013, dated 2018).
Where a name gives a salt, the structure may show the parent alone. Read-outs that look alike come from different tables or passages of the source.

Tests used:
BIR2 domain of XIAP = BIR2 domain of XIAP (Homo sapiens (Human), UniProt P98170, C202A/C213G); assay: TR-FRET assay for BIR2 (inhibition of binding of XIAP BIR2 domain to SMAC-derived Peptide A); conditions: 6x His-tagged BIR2 domain (aa 124-240 of XIAP) 10 nM, Peptide A 20 nM, TR-FRET; read-out: IC50 BIR2
BIR2 domain of XIAP, sequence (P98170 124-240 with tags or gaps C202A/C213G limits assumed): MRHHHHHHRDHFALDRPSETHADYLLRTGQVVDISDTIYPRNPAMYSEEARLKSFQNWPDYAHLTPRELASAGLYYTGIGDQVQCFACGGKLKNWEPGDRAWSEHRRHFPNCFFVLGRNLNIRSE

BIR3 domain of XIAP = BIR3 domain of XIAP (Homo sapiens (Human), UniProt P98170); assay: TR-FRET assay for BIR3 (inhibition of binding of XIAP BIR3 domain to SMAC-derived Peptide A)
BIR3 domain of XIAP, sequence (P98170 241-356 with tags or gaps limits assumed): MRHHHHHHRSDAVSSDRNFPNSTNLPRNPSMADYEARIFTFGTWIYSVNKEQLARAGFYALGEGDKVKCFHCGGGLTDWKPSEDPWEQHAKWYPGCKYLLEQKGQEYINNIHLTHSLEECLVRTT

[1] = 6x His-tagged BIR3 domain (aa 241-356 of XIAP) 10 nM, Peptide A 20 nM, TR-FRET

Structure (SMILES) | IC50 (BIR2 domain of XIAP) | IC50 (BIR3 domain of XIAP; [1]) | IC50 (BIR3 domain of XIAP)
CN[C@@H](C)C(=O)N[C@H]1CN(C(=O)CCN)c2ccccc2N(Cc2c(OC)ccc3cc(C(=O)OC)ccc23)C1=O [Example 61, 5-[(S)-5-(3-Amino-propionyl)-3-((S)-2-methylamino-propionylamino)-2-oxo-2,3,4,5-tetrahydro-benzo[b][1,4]diazepin-1-ylmethyl]-6-methoxy-naphthalene-2-carboxylic acid methyl ester hydrochloride] | 72 nM | > 54800 nM | –
CN[C@@H](C)C(=O)N[C@H]1CN2C(=O)CCNC(=O)c3ccc4c(c(OC)ccc4c3)CN(C1=O)c1ccccc12 [Example 63, Cyclic-5-[(S)-5-(3-Amino-propionyl)-3-((S)-2-methylamino-propionylamino)-2-oxo-2,3,4,5-tetrahydro-benzo[b][1,4]diazepin-1-ylmethyl]-6-methoxy-naphthalene-2-carboxylic amide hydrochloride] | 19 nM | 43000 nM | –
COc1ccc2ccccc2c1CN1C(=O)[C@@H](NC(=O)[C@H](C)N)CN(C(=O)c2ccc(N)cc2)c2ccccc21 [Example 65, (S)-2-amino-N—((S)-5-(4-aminobenzoyl)-1-((2-methoxynaphthalen-1-yl)methyl)-2-oxo-2,3,4,5-tetrahydro-1H-benzo[b][1,4]diazepin-3-yl)propanamide] | 7 nM | 23600 nM | –
CN[C@@H](C)C(=O)N[C@H]1CN(C(=O)c2ccc(N)cc2)c2ccccc2N(Cc2c(C)ccc3ccccc23)C1=O [Example 67, (S)—N—((S)-5-(4-aminobenzoyl)-1-((2-methylnaphthalen-1-yl)methyl)-2-oxo-2,3,4,5-tetrahydro-1H-benzo[b][1,4]diazepin-3-yl)-2-(methylamino)propanamide hydrochloride] | 22 nM | > 54800 nM | –
CN[C@@H](C)C(=O)N[C@H]1CN(C(=O)c2ccc(C(C)=O)cc2)c2ccccc2N(Cc2noc3cc(Br)ccc23)C1=O [Example 69e] | 49 nM | 50300 nM | –
CN[C@@H](C)C(=O)N[C@H]1CN(C(=O)c2ccc(C(C)=O)cc2)c2ccccc2N(Cc2c(OC)ccc3ccccc23)C1=O [Example 69g] | 11 nM | 42500 nM | –
CC(=O)c1ccc(C(=O)N2C[C@H](NC(=O)[C@H](C)N)C(=O)N(Cc3c(OCC(F)(F)F)ccc4ccccc34)c3ccccc32)cc1 [Example 69h] | 20 nM | 30300 nM | –
CC(=O)c1ccc(C(=O)N2C[C@H](NC(=O)[C@H](C)N)C(=O)N(Cc3c(OC(F)F)ccc4ccccc34)c3ccccc32)cc1 [Example 69i] | 39 nM | 52000 nM | –
COc1ccc2c(CN3C(=O)[C@@H](NC(=O)[C@H](C)N)CN(C(=O)c4ccc(C(C)=O)cc4)c4ccccc43)cc(=O)oc2c1 [Example 69j] | 213 nM | > 54800 nM | –
CC(=O)c1ccc(C(=O)N2C[C@H](NC(=O)[C@H](C)N)C(=O)N(Cc3noc4ccccc34)c3ccccc32)cc1 [Example 69k] | 27 nM | > 54800 nM | –
CN[C@@H](C)C(=O)N[C@H]1CN(C(=O)c2ccc(N)cc2)c2ccccc2N(Cc2noc3ccccc23)C1=O [Example 71, (S)—N—((S)-5-(4-Aminobenzoyl)-1-(benzo[d]isoxazol-3-ylmethyl)-2-oxo-2,3,4,5-tetrahydro-1H-benzo[b][1,4]diazepin-3-yl)-2-(methylamino)propanamide hydrochloride] | 64 nM | > 54800 nM | –
CN[C@@H](C)C(=O)N[C@H]1CN(C(=O)c2ccc(C#N)cc2)c2ccccc2N(Cc2c(OC(F)F)ccc3ccccc23)C1=O [Example 74, (S)—N—((S)-5-(4-Cyanobenzoyl)-1-((2-(difluoromethoxy)naphthalen-1-yl)methyl)-2-oxo-2,3,4,5-tetrahydro-1H-benzo[b][1,4]diazepin-3-yl)-2-(methylamino)propanamide] | 49 nM | > 54800 nM | –
CN[C@@H](C)C(=O)N[C@H]1CN(C(=O)c2ccc(NC(C)=O)cc2)c2ccccc2N(Cc2c(OC)ccc3cc(Br)ccc23)C1=O [Example 76d] | 5 nM | 33200 nM | –
CN[C@@H](C)C(=O)N[C@H]1CN(Cc2ccc(C#N)cc2)c2ccccc2N(Cc2c(OC)ccc3cc(Br)ccc23)C1=O [Example 78, (S)—N—((S)-1-((6-Bromo-2-methoxynaphthalen-1-yl)methyl)-5-(4-cyanobenzyl)-2-oxo-2,3,4,5-tetrahydro-1H-benzo[b][1,4]diazepin-3-yl)-2-(methylamino)propanamide trifluoroacetate] | 30 nM | 17100 nM | –
CC[C@H](NC)C(=O)N[C@H]1CN(C(=O)c2ccc(C(C)=O)cc2)c2ccccc2N(Cc2c(OC)ccc3cc(Br)ccc23)C1=O [Example 79, (S)—N—((S)-5-(4-Acetylbenzoyl)-1-((6-bromo-2-methoxynaphthalen-1-yl)methyl)-2-oxo-2,3,4,5-tetrahydro-1H-benzo[b][1,4]diazepin-3-yl)-2-(methylamino)butanamide hydrochloride] | 1 nM | 3480 nM | –
CCN[C@@H](C)C(=O)N[C@H]1CN(C(=O)c2ccc(C(C)=O)cc2)c2ccccc2N(Cc2c(OC)ccc3cc(Br)ccc23)C1=O [Example 80, (S)—N—((S)-5-(4-Acetylbenzoyl)-1-((6-bromo-2-methoxynaphthalen-1-yl)methyl)-2-oxo-2,3,4,5-tetrahydro-1H-benzo[b][1,4]diazepin-3-yl)-2-(ethylamino)propanamide hydrochloride] | 14 nM | – | > 54800 nM

Structure (SMILES) | IC50 (BIR2 domain of XIAP) | IC50 (BIR3 domain of XIAP; [1]) | IC50 (BIR3 domain of XIAP)
CN[C@@H](C)C(=O)N[C@H]1CN(C(=O)CS(C)(=O)=O)c2ccccc2N(Cc2c(OC)ccc3ccccc23)C1=O [Example 82, (S)—N—((S)-1-((2-Methoxynaphthalen-1-yl)methyl)-5-(2-(methylsulfonyl)acetyl)-2-oxo-2,3,4,5-tetrahydro-1H-benzo[b][1,4]diazepin-3-yl)-2-(methylamino)propanamide hydrochloride] | 29 nM | > 54800 nM | –
CN[C@@H](C)C(=O)N[C@H]1CN(C(=O)CS(C)(=O)=O)c2ccccc2N(Cc2c(OC(F)F)ccc3ccccc23)C1=O [Example 83, (S)—N—((S)-1-((2-(Difluoromethoxy)naphthalen-1-yl)methyl)-5-(2-(methylsulfonyl)acetyl)-2-oxo-2,3,4,5-tetrahydro-1H-benzo[b][1,4]diazepin-3-yl)-2-(methylamino)propanamide hydrochloride] | 121 nM | > 54800 nM | –
CN[C@@H](C)C(=O)N[C@H]1CN(C(=O)Cc2cccnc2)c2ccccc2N(Cc2c(OC)ccc3c(Br)cccc23)C1=O [Example 88, (S)—N—((S)-1-((5-bromo-2-methoxynaphthalen-1-yl)methyl)-2-oxo-5-(2-(pyridin-3-yl)acetyl)-2,3,4,5-tetrahydro-1H-benzo[b][1,4]diazepin-3-yl)-2-(methylamino)propanamide hydrochloride] | 14 nM | 39900 nM | –
CN[C@@H](C)C(=O)N[C@H]1CN(C(=O)c2cccc(C#N)c2)c2ccccc2N(Cc2c(OC)ccc3cc(Br)ccc23)C1=O [Example 90c] | 6 nM | 21800 nM | –
CN[C@@H](C)C(=O)N[C@H]1CN(C(=O)c2ccc(C(F)(F)F)cc2)c2ccccc2N(Cc2c(OC)ccc3cc(Br)ccc23)C1=O [Example 91d] | 18 nM | > 54800 nM | –
CN[C@@H](C)C(=O)N[C@H]1CN(C(=O)c2ccc(C)cc2)c2ccccc2N(Cc2c(OC)ccc3c(Br)cccc23)C1=O [Example 93, (S)—N—[(S)-1-(5-Bromo-2-methoxy-naphthalen-1-ylmethyl)-5-(4-methyl-benzoyl)-2-oxo-2,3,4,5-tetrahydro-1H-benzo[b][1,4]diazepin-3-yl]-2-methylamino-propionamide hydrochloride] | 18 nM | 47600 nM | –
CN[C@@H](C)C(=O)N[C@H]1CN(C(=O)c2ccc(C(C)(C)O)cc2)c2ccccc2N(Cc2c(OC)ccc3cc(Br)ccc23)C1=O [Example 95, (S)—N—{(S)-1-(6-Bromo-2-methoxy-naphthalen-1-ylmethyl)-5-[4-(1-hydroxy-1-methyl-ethyl)-benzoyl]-2-oxo-2,3,4,5-tetrahydro-1H-benzo[b][1,4]diazepin-3-yl}-2-methylamino-propionamide trifluoroacetate] | 7 nM | 36300 nM | –
CN[C@@H](C)C(=O)N[C@H]1CN(C(=O)c2ccc(C(=O)OC)cc2)c2ccccc2N(Cc2c(C)ccc3ccccc23)C1=O [Example 96a, 4-[(S)-3-((S)-2-Methylamino-propionylamino)-5-(2-methyl-naphthalen-1-ylmethyl)-4-oxo-2,3,4,5-tetrahydro-benzo[b][1,4]diazepine-1-carbonyl]-benzoic acid methyl ester hydrochloride] | 99 nM | > 54800 nM | –
CN[C@@H](C)C(=O)N[C@H]1CN(C(=O)Cc2nnn[nH]2)c2ccccc2N(Cc2c(C)ccc3ccccc23)C1=O [Example 96b] | 71 nM | 38800 nM | –
CN[C@@H](C)C(=O)N[C@H]1CN(C(=O)CC2CCOCC2)c2ccccc2N(Cc2c(C)ccc3ccccc23)C1=O [Example 96c] | 106 nM | 28100 nM | –
CN[C@@H](C)C(=O)N[C@H]1CN(C(=O)c2ccc(C#N)cc2)c2ccccc2N(Cc2c(C)ccc3ccccc23)C1=O [Example 96d] | 46 nM | > 54800 nM | –
CN[C@@H](C)C(=O)N[C@H]1CN(C(=O)CC2CCCCC2)c2ccccc2N(Cc2c(C)ccc3ccccc23)C1=O [Example 96e] | 685 nM | > 54800 nM | –
CN[C@@H](C)C(=O)N[C@H]1CN(C(=O)Cc2cccnc2)c2ccccc2N(Cc2c(C)ccc3ccccc23)C1=O [Example 96h] | 23 nM | 13600 nM | –
CN[C@@H](C)C(=O)N[C@H]1CN(C(=O)c2ccc(F)cc2)c2ccccc2N(Cc2c(C)ccc3ccccc23)C1=O [Example 96i] | 30 nM | 48000 nM | –
CN[C@@H](C)C(=O)N[C@H]1CN(C(=O)c2ccc(C)cc2)c2ccccc2N(Cc2c(C)ccc3ccccc23)C1=O [Example 96k] | 38 nM | 32200 nM | –
